Results as given in patent publication US20080031817A1, “Inhibition Of Superoxide Dismutase By Tetrathiomolybdate: Identification Of New Anti-Angiogenic And Antitumor Agents” (priority 2004, published 2008).
Values belong to the molecule of their own block, whether it stands above or below them.

Legend:
bovine SOD1 [1] = molecular target: T1, bovine SOD1 (Bos taurus, UniProt P00442); assay: CuZn SOD (SOD1) activity assay, xanthine/xanthine oxidase with WST-1; type: biochemical; settings: for inhibition of SOD1 activity in vitro: in vitro enzyme assay, WST-1
T1 sequence (P00442 whole entry): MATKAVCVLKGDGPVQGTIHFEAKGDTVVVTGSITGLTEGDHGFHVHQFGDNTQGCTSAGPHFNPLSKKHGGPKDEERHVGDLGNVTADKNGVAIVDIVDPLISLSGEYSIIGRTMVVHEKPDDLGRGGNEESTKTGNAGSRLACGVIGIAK
Protocol: SOD1 was assayed with a commercially available kit (Dojindo) based on the xanthine/xanthine oxidase superoxide generation reaction coupled to a water soluble tetrazolium salt, WST-1.
Standard curves (0-13 nM) of bovine SOD were generated using the SOD1 assay described above in the presence of increasing concentrations of ATN-224. Appropriate blanks comprising ATN-224 in the absence of SOD1 enzyme were also generated. The inhibition of SOD1 activity was calculated from these standard curves.

angiogenesis = assay: Matrigel plug assay (hemoglobin); type: in vivo; settings: mice
Protocol: This assay is performed essentially as described by Passaniti et al. (Lab Invest. 67:519-528 (1992). Ice-cold Matrigel® (e.g., 500 μL) (Collaborative Biomedical Products, Inc., Bedford, Mass.) is mixed with heparin (e.g., 50 μg/ml), FGF-2 (e.g., 400 ng/ml) and the compound to be tested. In some assays, bFGF may be substituted with tumor cells as the angiogenic stimulus. The Matrigel® mixture is injected subcutaneously into 4-8 week-old athymic nude mice at sites near the abdominal midline, preferably 3 injections per mouse. The injected Matrigel® forms a palpable solid gel. Injection sites are chosen such that each animal receives a positive control plug (such as FGF-2+heparin), a negative control plug (e.g., buffer+heparin) and a plug that includes the compound being tested for its effect on angiogenesis, e.g., (FGF-2+heparin+compound). […] Hemoglobin (Hb) levels are determined using Drabkin's solution (e.g., obtained from Sigma) according to the manufacturers' instructions. […] The amount of fluorescence in the dispersed plug, determined fluorimetrically, also serves as a measure of angiogenesis in the plug. […]
Matrigel® ([…]) on ice was mixed with heparin (50 mg/ml), FGF-2 (800 ng/ml), VEGF (300 ng/ml) and the test compound. […] Hemoglobin levels in the plugs were determined using Drabkin's solution according to the manufacturers' instructions (Sigma Chemicals). […]

intracellular CuZnSOD = molecular target: T2, intracellular CuZnSOD (Homo sapiens, UniProt P00441); assay: Intracellular CuZnSOD activity in HUVECs; type: cell-based
T2 construct: Lysates were assayed for SOD1 activity as described above; endogenous in cells; host or cells: HUVEC
T2 sequence (P00441 whole entry): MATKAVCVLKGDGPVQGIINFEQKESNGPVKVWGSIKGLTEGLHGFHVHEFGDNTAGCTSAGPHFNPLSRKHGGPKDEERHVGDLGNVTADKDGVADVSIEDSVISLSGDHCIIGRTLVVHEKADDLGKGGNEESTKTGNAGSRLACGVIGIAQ
Protocol: HUVECs were plated on 0.1% gelatin at 2-4×10^6 cells in T-25 flasks in M200 medium with 2% FCS. Cells were incubated at 37° C./5% CO2 for 16 hrs. Cells were rinsed with M200/2% FCS and incubated for a further 2 hrs in medium to which varying concentration of ATN-224 and FGF-2 (at 1 ng/ml) were added. At various intervals, medium was removed and the cells lysed in lysis buffer. Lysates were assayed for SOD1 activity as described above. Lysates were also analyzed by Western blot using a SOD1-specific polyclonal antibody (Biodesign, ME). These experiments were repeated in increasing concentrations of serum.

HUVEC = HUVEC proliferation assay (acid phosphatase method); type: cell-based, human
Protocol: Alternatively, cells at a density of 6000/well are plated in wells of 48 well microplates on 0.1% gelatin in 200 μl M200/2% FCS, and incubated at 37° C. in a humid atmosphere of 5% CO2 for 16 hrs. Compounds to be tested are diluted in M200 supplemented with 2% FCS and 1 ng/ml FGF-2 and added to the cells. Positive control contain no compound, and negative controls contain no compound or FGF-2. Cells are incubated at 37° C./5% CO2 for 72 hours. Cells are enumerated indirectly using the acid phosphatase method (Connolly, D T et al., 1986, Anal. Biochem 152:136-140). After removal of growth medium, the cells are lysed in buffer containing Triton X-100. The chromogenic substrate for acid phosphatase, p-nitrophenyl phosphate is added at a concentration of 100 mM. After incubation for 75 min. at 37° C., the reaction is stopped with 1N NaOH, and color is measured using a multiwell microplate reader.
Cells at a density of 6000/well were plated in wells of 48 well microplates on 0.1% gelatin in 200 μl M200/2% FCS, and were incubated at 37° C. in a humid atmosphere of 5% CO2 for 16 hrs. Compounds to be tested were diluted in M200 supplemented with 2% FCS and 1 ng/ml FGF-2 and added to the cells. Positive control contained no compound, and negative controls contained no compound or FGF-2. Cells were incubated at 37° C./5% CO2 for 72 hours. Cells were enumerated indirectly using the acid phosphatase method. After removal of growth medium, the cells were lysed in buffer containing the detergent Triton X-100. The chromogenic substrate for acid phosphatase, p-nitrophenyl phosphate was added at a concentration of 100 mM. After incubation for 75 min. at 37° C., the reaction was stopped with 1N NaOH and color was measured using a multiwell microplate reader.
HUVEC proliferation assays were performed as described. Increasing concentrations of ATN-224 was added to cultures in the presence or absence of 100 μM MnTBAP (AG Scientific, San Diego). Cell number was estimated using the acid phosphatase method described above.

[2] = system: intracellular copper levels
[3] = Zn^2+, Fe^2+, Ca^2+, Mn^2+, Mg^2+; standard binding assays
SOD1 = molecular target: T3, SOD1 (Homo sapiens, UniProt P00441); assay: SOD1 activity in treated tumors; type: in vivo; settings: SOD1 protein unchanged (Western blot)
T3 construct: from tissue
T3 sequence (P00441 whole entry, species assumed): as the sequence (P00441 whole entry) above

[4] = system: superoxide anions in HUVECs; settings: 72 hrs, ATN-224 at IC50, 5 μM DHE, vs control HUVECs
Protocol: HUVECs were plated in 6 well cluster plates on 0.1% gelatin at 6000 cells/well in M200/2% FCS. Cells were incubated at 37° C./5% CO2 for 16 hrs. Cells were rinsed, and ATN-224 was added in medium supplemented with 1 ng/ml FGF-2. Cells were incubated at 37 ° for 72 hours, rinsed in PBS, and DHE (Molecular probes) was added (5 μM) to the cells. Cells were then visualized microscopically using a fluorescent lamp and a red filter.

bovine SOD1 [5] = molecular target: T1, bovine SOD1; assay: Removal of copper from SOD1 (gel filtration, ICP-MS); type: biochemical
Protocol: […] The protein was then purified by gel filtration chromatography. The sample was then analyzed for molybdenum content and copper content by ICP-MS.

extracellular SOD = molecular target: T4, extracellular SOD (Homo sapiens, UniProt P08294); settings: alcoholics, compared to untreated alcoholics and healthy control; cited from earlier work
T4 construct: DS administered to alcoholics reduced by 20% extracellular SOD activity
T4 sequence (P08294 19-240): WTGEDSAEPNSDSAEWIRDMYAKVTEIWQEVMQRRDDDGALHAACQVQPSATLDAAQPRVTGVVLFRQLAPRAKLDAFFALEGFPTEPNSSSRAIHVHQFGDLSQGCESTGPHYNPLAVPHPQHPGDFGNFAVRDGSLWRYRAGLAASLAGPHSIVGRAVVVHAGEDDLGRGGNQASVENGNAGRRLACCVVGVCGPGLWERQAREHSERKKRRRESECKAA

inhibition of intracellular CuZnSOD (intracellular CuZnSOD; HUVECs, 3 concentrations, up to 24 hours): dose and time dependent inhibition
effect of serum on intracellular CuZnSOD inhibition (intracellular CuZnSOD; increasing concentrations of serum): unaffected by the presence of serum
inhibition of aldehyde dehydrogenase (aldehyde dehydrogenase): does not inhibit
binding to other metal cations [3]: does not bind detectably
inhibition of SOD1 activity in vitro (bovine SOD1 [1]): inhibited this reaction
SOD1 enzymatic activity in treated tumors (SOD1): reduced SOD1 enzymatic activity
binding to CuZnSOD (Mo content of purified protein) (bovine SOD1 [5]): did not bind to CuZnSOD
copper content of CuZnSOD (bovine SOD1 [5]): appreciable loss of copper
Compound: C[N+](C)(C)CCO.C[N+](C)(C)CCO.[SH-].[SH-].[S]=[Mo]=[S] [ATN-224, choline tetrathiomolybdate]
angiogenesis in Matrigel plugs (angiogenesis; compound in plug, 5 days): inhibited
level of CuZnSOD protein (Western blot) (intracellular CuZnSOD; HUVEC lysates): did not affect the level of CuZnSOD protein
IC50 (HUVEC; FGF-2 driven, 72 hours, read-out: IC50, inhibition of HUVEC proliferation): 1 to 2 µM
inhibition of FGF-2 driven proliferation with copper added (HUVEC; equimolar concentrations of copper added): completely abrogated
intracellular copper levels [2]: does not increase intracellular copper levels
IL-8 expression (IL-8 expression): down-regulates IL-8 expression
inhibition of generation of superoxide ions in the assay (bovine SOD1 [1]; xanthine/xanthine oxidase): did not act by inhibiting generation of superoxide ions
DHE fluorescence (superoxide) [4]: strong fluorescence

inhibition of SOD1 activity in vitro (bovine SOD1 [1]): inhibited SOD1 activity
inhibition of SOD1 activity in vitro (bovine SOD1 [1]; listed as choline tetrathiotungstate): effective inhibitor of SOD1 activity
Compound: C[N+](C)(C)CCO.C[N+](C)(C)CCO.[S]=[W](=[S])([S-])[S-] [ATN-427, choline tetrathiotungstate]

inhibition of SOD1 activity in vitro (bovine SOD1 [1]): inhibited SOD1 activity
Compound: c1csc(CSc2nc3ccccc3s2)c1 [ATN-714]

inhibition of SOD1 activity in vitro (bovine SOD1 [1]): inhibited SOD1 activity
Compound: CN(C)C1=NCC(CSC(=N)N)S1 (stereo not drawn) [ATN-719]

The remaining lines, values behind:

Compound: O=C1CC(c2cccs2)Sc2ccccc2N1 (stereo not drawn) [ATN 722]
inhibition of SOD1 activity in vitro (bovine SOD1 [1]): inhibited SOD1 activity

Compound: CCN(CC)C(=S)SSC(=S)N(CC)CC [DS, Tetraethylthiuram disulfide]
reduction of extracellular SOD activity (extracellular SOD): 20%

Compound: O=C(O)c1ccc(/C2=C3\C=CC(=N3)/C(c3ccc(C(=O)O)cc3)=c3/cc/c4[n]3[Mn]([Cl])[n]3c2ccc3/C(c2ccc(C(=O)O)cc2)=C2/C=CC(=N2)\C=4c2ccc(C(=O)O)cc2)cc1 [MnTBAP, reference compound]
reversal of ATN-224 inhibition of angiogenesis (angiogenesis; MnTBAP with ATN-224 in plug): abrogated most of this inhibition
reversal of ATN-224 inhibition of cell proliferation (HUVEC; 100 μM MnTBAP with ATN-224): abrogate most of the inhibition
